pIC50: −log10 of the molar value. In brackets after ≈: the same amount, converted by molar mass.
Tests used:
[1] = test system: E. coli WT-3 [gyrA(S83L,D87G)]; assay: microbe, parasite or virus in culture; type: cell-based; conditions: Escherichia coli, read-out: MIC E. coli WT-3 [gyrA(S83L,D87G)]
How it was run: (§1)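 Inoculum: 10^4-10^6 cfu/mL from overnight culture. Medium: cation-adjusted Müller-Hinton broth. Incubation: approx. 16 h, 30-37° C. Read-out: visual, MIC at no growth.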

E. coli ΔtolC = assay: microbe, parasite or virus in culture; type: cell-based; conditions: Escherichia coli, 16 h, read-out: MIC E. coli ΔtolC, small panel, Tables 1a/1b; no visual growth after approx. 16 h
How it was run: as §1

P. aeruginosa ΔmexAB = assay: microbe, parasite or virus in culture; type: cell-based; conditions: Pseudomonas aeruginosa, 16 h, read-out: MIC P. aeruginosa ΔmexAB, efflux-deficient strain; small panel, Tables 1a/1b
How it was run: as §1

E. coli WT DSM-1116 = assay: MIC, microbroth dilution susceptibility assay; type: cell-based; conditions: Escherichia coli, DSM1116; small panel, Tables 1a/1b; no visual growth after approx. 16 h; read-out: MIC E. coli WT DSM-1116
How it was run: as §1

E. coli WT = assay: MIC, microbroth dilution susceptibility assay; type: cell-based; conditions: Escherichia coli
How it was run: as §1

P. aeruginosa WT PA14 = assay: MIC, microbroth dilution susceptibility assay; type: cell-based; conditions: Pseudomonas aeruginosa, PA14, small panel, Tables 1a/1b; read-out: MIC P. aeruginosa WT PA14
How it was run: as §1

S. aureus Newman = assay: MIC, microbroth dilution susceptibility assay; type: cell-based; conditions: Staphylococcus aureus, NEWMAN; small panel, Tables 1a/1b; read-out: MIC S. aureus Newman
How it was run: as §1

E. coli gyrase = target: T1, E. coli gyrase (Escherichia coli, UniProt P0AES4+P0AES6); assay: E. coli gyrase supercoiling (sc) assay; type: biochemical; conditions: supercoiling assay kit, agarose gel quantification; read-out: Ec gyrase sc IC50
T1 construct: purchased Inspiralis
Experimental: The target activity on E. coli gyrase was assessed as described in Baumann et al., Angew Chem Int Ed Engl. 2014; 53(52):14605-9 using a commercial supercoiling (sc) assay kit from Inspiralis according to the manufacturer's instructions. The samples were separated on 0.8% (w/v) agarose gels and relaxed and supercoiled plasmid was visualized by ethidium bromide staining. Half-inhibitory concentrations (IC50) were calculated after image analysis and quantification (ImageJ) based on sigmoidal curve fitting (OriginPro).

A. baumannii = assay: MIC, microbroth dilution susceptibility assay (Table 2b); type: cell-based; conditions: Acinetobacter baumannii, larger panel
Experimental: (§2) Cystobactamid derivatives synthesized were tested against relevant Gram negative and positive bacteria of clinical interest. Experimental procedures used for the biological characterization of the compounds are the same as previously described in WO 2016/082934.
(§3) Bacterial strains used in susceptibility assays (minimum inhibitory concentration, MIC) were either part of our internal strain collection or purchased from the German Collection of Microorganisms and Cell Cultures (Deutsche Sammlung von Mikroorganismen und Zellkulturen, DSMZ) and the American Type Culture Collection (ATCC). The susceptible E. coli strain (WT) and fluoroquinolone-resistant mutants E. coli WT-3 and WT-III were kindly provided by Prof Dr. P. Heisig, Pharmaceutical Biology and Microbiology, University of Hamburg, Germany. The efflux-deficient strain P. aeruginosa ΔmexAB was kindly provided by Prof Dr. S. Häußler, Institute for Molecular Bacteriology, TWINCORE, Hannover, Germany. All compounds were prepared as DMSO stocks and MIC values were determined in standard microbroth dilution assays in 96-well MTPs as described in Baumann et al., Angew Chem Int Ed Engl. 2014; 53(52):14605-9. In brief, overnight cultures of bacteria were diluted in either tryptic soy broth (TSB: 1.7% peptone casein, 0.3% peptone soymeal, 0.25% glucose, 0.5% NaCl, 0.25% K2HPO4; pH 7.3; S. pneumoniae and E. faecalis) or cation-adjusted Müller-Hinton Broth (BBL™, BD; all other bacteria) and adjusted to 10^4-10^6 cfu/mL. Bacteria were grown in the presence of the derivatives in serial dilution for approx. 16 h at 30-37° C. MIC values were determined and were defined as the antibiotic concentration at which no visual growth of bacteria was observed.

C. freundii = assay: as above; type: cell-based; conditions: Citrobacter freundii, larger panel
Experimental: as §2, §3

E. aerogenes = assay: as above; type: cell-based; conditions: Klebsiella aerogenes, larger panel
Experimental: as §2, §3

E. cloacae = assay: as above; type: cell-based; conditions: Enterobacter cloacae, larger panel
Experimental: as §2, §3

E. faecalis = assay: as above; type: cell-based; conditions: Enterococcus faecalis, larger panel
Experimental: as §2, §3

K. pneumoniae = assay: as above; type: cell-based; conditions: Klebsiella pneumoniae, larger panel
Experimental: as §2, §3

P. aeruginosa ESBL 1 = assay: as above; type: cell-based; conditions: Pseudomonas aeruginosa, ESBL1, larger panel
Experimental: as §2, §3

P. aeruginosa ESBL 2 = assay: as above; type: cell-based; conditions: Pseudomonas aeruginosa, ESBL2, larger panel
Experimental: as §2, §3

P. mirabilis = assay: as above; type: cell-based; conditions: Proteus mirabilis, larger panel
Experimental: as §2, §3

P. vulgaris = assay: as above; type: cell-based; conditions: Proteus vulgaris, larger panel
Experimental: as §2, §3

S. epidermidis = assay: as above; type: cell-based; conditions: Staphylococcus epidermidis, larger panel
Experimental: as §2, §3

S. marcescens = assay: as above; type: cell-based; conditions: Serratia marcescens, larger panel
Experimental: as §2, §3

A. baumannii DSM-30008 = assay: MIC, microbroth dilution susceptibility assay; type: cell-based; conditions: Acinetobacter baumannii, DSM30008; large panel, Table 2a
How it was run: as §1

C. freundii DSM-30039 = assay: MIC, microbroth dilution susceptibility assay; type: cell-based; conditions: Citrobacter freundii, DSM30039; large panel, Table 2a
How it was run: as §1

E. aerogenes DSM-30053 = assay: MIC, microbroth dilution susceptibility assay; type: cell-based; conditions: Klebsiella aerogenes, DSM30053; large panel, Table 2a
How it was run: as §1

E. cloacae DSM-30054 = assay: MIC, microbroth dilution susceptibility assay; type: cell-based; conditions: Enterobacter cloacae, DSM30054; large panel, Table 2a
How it was run: as §1

E. faecalis ATCC-29212 = assay: MIC, microbroth dilution susceptibility assay; type: cell-based; conditions: Enterococcus faecalis, ATCC29212; large panel, Table 2a; TSB
How it was run: as §1

K. pneumoniae DSM-30104 = assay: MIC, microbroth dilution susceptibility assay; type: cell-based; conditions: Klebsiella pneumoniae, DSM30104; large panel, Table 2a
How it was run: as §1

P. aeruginosa DSM-24600 = assay: MIC, microbroth dilution susceptibility assay; type: cell-based; conditions: Pseudomonas aeruginosa, DSM24600; large panel, Table 2a
How it was run: as §1

P. aeruginosa DSM-46316 = assay: MIC, microbroth dilution susceptibility assay; type: cell-based; conditions: Pseudomonas aeruginosa, DSM46316; large panel, Table 2a
How it was run: as §1

P. mirabilis DSM-2140 = assay: MIC, microbroth dilution susceptibility assay; type: cell-based; conditions: Proteus mirabilis, DSM2140; large panel, Table 2a
How it was run: as §1

P. vulgaris DSM-2140 = assay: MIC, microbroth dilution susceptibility assay; type: cell-based; conditions: Proteus vulgaris, DSM2140; large panel, Table 2a
How it was run: as §1

S. aureus ATCC-29213 = assay: MIC, microbroth dilution susceptibility assay; type: cell-based; conditions: Staphylococcus aureus, ATCC29213; large panel, Table 2a
How it was run: as §1

S. epidermidis DSM-28765 = assay: MIC, microbroth dilution susceptibility assay; type: cell-based; conditions: Staphylococcus epidermidis, DSM28765; large panel, Table 2a
How it was run: as §1

S. marcescens DSM-30121 = assay: MIC, microbroth dilution susceptibility assay; type: cell-based; conditions: Serratia marcescens, DSM30121; large panel, Table 2a
How it was run: as §1

S. pneumoniae DSM-20566 = assay: MIC, microbroth dilution susceptibility assay; type: cell-based; conditions: Streptococcus pneumoniae, DSM20566; large panel, Table 2a; TSB
How it was run: as §1

[2] = test system: E. coli WT-III [marRΔ74bp]; type: cell-based; conditions: fluoroquinolone-resistant mutant; Table 2a
Experimental: as §2, §3

## CO[C@@H](C(N)=O)[C@H](NC(=O)c1ccc(NC(=O)c2ccc(C#N)cc2)cc1)C(=O)Nc1ccc(C(=O)Nc2ccc(C(=O)Nc3ccc(C(=O)O)cc3)c(O)c2OC(C)C)cc1 [Compound 109, 4-(4-(4-((2S,3R)-4-amino-2-(4-(4-cyanobenzamido)benzamido)-3-methoxy-4-oxobutanamido)benzamido)-2-hydroxy-3-isopropoxybenzamido)benzoic acid]
[1]
  MIC: 0.25 µg/mL (≈ 0.297 µM)
E. coli ΔtolC
  MIC: < 0.03 µg/mL
P. aeruginosa ΔmexAB
  MIC: < 0.03 µg/mL
E. coli WT DSM-1116
  MIC: < 0.03 µg/mL
E. coli WT; larger panel, Table 2b
  MIC: 2 µg/mL (≈ 2.38 µM)
P. aeruginosa WT PA14
  MIC: 0.5 µg/mL (≈ 0.594 µM)
S. aureus Newman
  MIC: < 0.03 µg/mL
E. coli gyrase
  pIC50: 6.40
A. baumannii
  MIC: 1 µg/mL (≈ 1.19 µM)
C. freundii
  MIC: < 0.03 µg/mL
E. aerogenes
  MIC: 2 µg/mL (≈ 2.38 µM)
E. cloacae
  MIC: > 64 µg/mL
E. faecalis
  MIC: 0.125 µg/mL (≈ 0.148 µM)
K. pneumoniae
  MIC: 8 µg/mL (≈ 9.5 µM)
P. aeruginosa ESBL 1
  MIC: 2 µg/mL (≈ 2.38 µM)
P. aeruginosa ESBL 2
  MIC: 1 µg/mL (≈ 1.19 µM)
P. mirabilis
  MIC: 4 µg/mL (≈ 4.75 µM)
P. vulgaris
  MIC: 0.125 µg/mL (≈ 0.148 µM)
S. epidermidis
  MIC: < 0.03 µg/mL
S. marcescens
  MIC: > 64 µg/mL

## CC(C)Oc1c(NC(=O)c2ccc(NC(=O)[C@H](CC(N)=O)NC(=O)c3ccc(NC(=O)c4ccc(C#N)cc4)cc3)cc2)ccc(C(=O)Nc2ccc(C(=O)O)cc2)c1O [Compound 44, (S)-4-(4-(4-(4-amino-2-(4-(4-cyanobenzamido)benzamido)-4-oxobutanamido)benzamido)-2-hydroxy-3-isopropoxybenzamido)benzoic acid]
[1]
  MIC: 0.13 µg/mL (≈ 0.16 µM)
E. coli ΔtolC
  MIC: 0.06 µg/mL (≈ 0.0739 µM)
P. aeruginosa ΔmexAB
  MIC: 0.25 µg/mL (≈ 0.308 µM)
A. baumannii DSM-30008
  MIC: 1 µg/mL (≈ 1.23 µM)
C. freundii DSM-30039
  MIC: < 0.03 µg/mL
E. aerogenes DSM-30053
  MIC: 1 µg/mL (≈ 1.23 µM)
E. cloacae DSM-30054
  MIC: 0.25 µg/mL (≈ 0.308 µM)
E. coli WT DSM-1116
  MIC: 0.5 µg/mL (≈ 0.616 µM)
E. coli WT; large panel, Table 2a
  MIC: 0.25 µg/mL (≈ 0.308 µM)
E. coli WT; larger panel, Table 2b
  MIC: 0.25 µg/mL (≈ 0.308 µM)
E. faecalis ATCC-29212
  MIC: 0.5 µg/mL (≈ 0.616 µM)
K. pneumoniae DSM-30104
  MIC: 0.5 µg/mL (≈ 0.616 µM)
P. aeruginosa DSM-24600
  MIC: > 64 µg/mL
P. aeruginosa DSM-46316
  MIC: 2 µg/mL (≈ 2.46 µM)
P. aeruginosa WT PA14
  MIC: 2 µg/mL (≈ 2.46 µM)
P. mirabilis DSM-2140
  MIC: 64 µg/mL (≈ 78.8 µM)
P. vulgaris DSM-2140
  MIC: 0.25 µg/mL (≈ 0.308 µM)
S. aureus ATCC-29213
  MIC: 0.5 µg/mL (≈ 0.616 µM)
S. aureus Newman
  MIC: 0.25 µg/mL (≈ 0.308 µM)
S. epidermidis DSM-28765
  MIC: 0.06 µg/mL (≈ 0.0739 µM)
S. marcescens DSM-30121
  MIC: > 64 µg/mL
S. pneumoniae DSM-20566
  MIC: 0.13 µg/mL (≈ 0.16 µM)
[2]
  MIC E. coli WT-III [marRΔ74bp]: 0.25 µg/mL (≈ 0.308 µM)
A. baumannii
  MIC: 1 µg/mL (≈ 1.23 µM)
C. freundii
  MIC: < 0.03 µg/mL
E. aerogenes
  MIC: 0.06 µg/mL (≈ 0.0739 µM)
E. cloacae
  MIC: 0.25 µg/mL (≈ 0.308 µM)
E. faecalis
  MIC: 0.5 µg/mL (≈ 0.616 µM)
K. pneumoniae
  MIC: 0.5 µg/mL (≈ 0.616 µM)
P. aeruginosa ESBL 1
  MIC: 4 µg/mL (≈ 4.93 µM)
P. aeruginosa ESBL 2
  MIC: 4 µg/mL (≈ 4.93 µM)
P. mirabilis
  MIC: > 64 µg/mL
P. vulgaris
  MIC: 0.25 µg/mL (≈ 0.308 µM)
S. epidermidis
  MIC: < 0.03 µg/mL
S. marcescens
  MIC: > 64 µg/mL

Reference: patent US11034648B2, “Cystobactamide derivatives” (priority 2017, dated 2021)
